36 compounds from PubChem BioAssay AID588764 (Broad Institute, 2011) can be followed below.

This experiment addresses Histone acetyltransferase RTT109 (Candida albicans (strain SC5314 / ATCC MYA-2876)) (UniProt Q5AAJ8). Kind of experiment: Rtt109/Vps75 acetyltransferase inhibitor potency, dose response, biochemical, cherry-picked hits, plate reader (AID 588764). As to conditions: Rtt109/Vps75 HAT activity; for activity change, negative = inhibition: at 19.5 µM (top of the series).

Results filed as inconclusive are left out. Activity calls are given as the source filed them. No rule for the calls is given here.

Histone acetyltransferase RTT109 (Candida albicans (strain SC5314 / ATCC MYA-2876)), sequence (Q5AAJ8 whole entry, looked up): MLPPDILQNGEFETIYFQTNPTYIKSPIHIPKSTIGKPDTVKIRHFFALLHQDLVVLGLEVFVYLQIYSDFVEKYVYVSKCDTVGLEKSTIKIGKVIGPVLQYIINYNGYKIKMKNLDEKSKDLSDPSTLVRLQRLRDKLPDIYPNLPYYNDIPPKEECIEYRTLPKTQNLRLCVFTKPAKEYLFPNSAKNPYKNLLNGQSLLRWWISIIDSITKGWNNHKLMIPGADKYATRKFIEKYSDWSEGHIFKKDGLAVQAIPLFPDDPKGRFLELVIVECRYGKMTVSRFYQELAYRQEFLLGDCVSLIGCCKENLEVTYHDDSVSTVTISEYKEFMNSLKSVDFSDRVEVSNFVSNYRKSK

With `CCN(c1ccc(OC)cc1)S(=O)(=O)c1nnc(NC(=O)COc2ccc(C)cc2)s1`, the “activity change, negative = inhibition” value was “inactive”.

For the compound `O=C(CNC(=O)c1ccc(Br)o1)NC12CC3CC(CC(C3)C1)C2`, the “activity change, negative = inhibition” value was “inactive”. With `COc1ccc(-n2sc3ccc(F)cc3c2=O)cc1`, the AC50 is 6 µM. For the compound `COc1ccccc1C(=O)CSc1nccn1C`, the “activity change, negative = inhibition” value is “inactive”.

Consider `O=C(O)C1CCc2sc3[nH]c(=S)n(-c4ccccc4)c(=O)c3c21` (stereo unspecified), for which the AC50 was 9.94 µM. As to `CCCCc1ccc(-n2c(Cc3cccs3)n[nH]c2=S)cc1`, the “activity change, negative = inhibition” value is “inactive”. As for `CC1Cc2ccccc2N1C(=O)COC(=O)c1ccc(O)cc1` (stereo unspecified), the “activity change, negative = inhibition” value is “inactive”. Consider `O=C(CSC1=NCCN1)Nc1cccc([N+](=O)[O-])c1`, for which the “activity change, negative = inhibition” value was “inactive”. `Cc1ccc(C(=O)NCCCNC(=O)COc2ccc(C)c(C)c2)cn1`: the “activity change, negative = inhibition” value is “inactive”. As for `CCCCCCCCCn1c2c(c(=N)c3c1CCC3)CCC2`, the “activity change, negative = inhibition” value is “inactive”. Consider `CC1(C)OC(=O)N(c2ccccc2)C12C=Cc1cc(Br)ccc1O2` (stereo unspecified), for which the “activity change, negative = inhibition” value is “inactive”. Regarding `CCC(C)NC(=O)C1CCN(S(=O)(=O)c2cc([N+](=O)[O-])ccc2Cl)CC1` (stereo unspecified), the “activity change, negative = inhibition” value was “inactive”. Same read-out and setting: in the case of `COc1ccccc1NC1=C(Cl)C(=O)N(C2CCCCC2)C1=O` it was “inactive”; in that of `Cc1ccccc1C(=O)NC(NC(=S)Nc1ccc(S(N)(=O)=O)cc1)C(Cl)(Cl)Cl` (stereo unspecified), “inactive”; in that of `Cc1c(C(=O)N2CCC[C@H]2CO)oc2c(F)cccc12`, “inactive”.

With `O=c1[nH]c2ccccc2c2oc(CCl)nc12`, the “activity change, negative = inhibition” value is “inactive”. Take `Cc1ccc(/C=C2\SC(=S)N(C(Cc3ccccc3)C(=O)O)C2=O)cc1` (stereo unspecified): the “activity change, negative = inhibition” value is “inactive”.

In the case of `Cc1ccc(C(=O)NCC(=O)NCC(c2ccco2)N2CCCCC2)cc1C` (stereo unspecified), the “activity change, negative = inhibition” value was “inactive”.

Take `CCc1ccc(C(=O)CSc2ncn[nH]2)cc1`: the AC50 was 4.11 µM. Regarding `Nc1nc2ccc(S(=O)(=O)N3CCCCC3)cc2s1`, the AC50 is 19.5 µM.

In the case of `Cc1nn(C)cc1[C@@H]1C[C@H]2CN(Cc3cccc(Cl)c3)C(=O)[C@]23CCCN13`, the “activity change, negative = inhibition” value is “inactive”. As for `Cc1cc(OCc2ccc(C(=O)NN=C3CCCC3)cc2)ccc1Cl`, the “activity change, negative = inhibition” value was “inactive”. For the compound `Cc1ccc(S(=O)(=O)N/N=C\C=C\c2ccccc2)cc1`, the “activity change, negative = inhibition” value is “inactive”. On to `CCOC(=O)C1=C(C)N=c2s/c(=C/c3ccc(OCC(=O)O)cc3)c(=O)n2C1c1cc(OC)c(OC)c(OC)c1` (stereo unspecified), for which the “activity change, negative = inhibition” value was “inactive”.

Consider `COc1ccc(N2CCN(C(=O)CNC(=O)Cc3ccccc3)CC2)cc1`, for which the “activity change, negative = inhibition” value is “inactive”. The same measure, in the same setting: under `O=C(NCc1ccc(Cl)cc1)c1ccccc1CCc1ccccc1` stands “inactive”. As to `CC(=O)NC(CC(=O)NC1CCCc2ccccc21)c1ccccc1` (stereo unspecified), the “activity change, negative = inhibition” value was “inactive”. In the case of `CCn1c(CCn2c3ccccc3c3ccccc32)n[nH]c1=S`, the “activity change, negative = inhibition” value is “inactive”.

On to `CCOc1ccc(N2C(=O)CC(Sc3ccccc3C(=O)O)C2=O)c([N+](=O)[O-])c1` (stereo unspecified), for which the “activity change, negative = inhibition” value is “inactive”. With `O=c1c2ccccc2sn1-c1cc(S(=O)(=O)N2CCOCC2)ccc1N1CCOCC1`, the AC50 was 3.78 µM.

On to `CCOC(=O)c1c(C)oc2c(CC(=O)c3ccccc3)c(Cl)c(O)c(O)c12`, for which the “activity change, negative = inhibition” value is “inactive”. For the compound `C=CCNc1nnc(SC2CC(=O)N(c3ccc(OC)cc3)C2=O)s1` (stereo unspecified), the AC50 was 13.4 µM.

`Cc1ccccc1Nc1nnc(SCC2CCCCO2)s1` (stereo unspecified): the “activity change, negative = inhibition” value is “inactive”. `O=C(Nc1ccc(F)cc1)c1c(O)c2c(n(Cc3ccccc3)c1=O)CCCC2`: the “activity change, negative = inhibition” value is “inactive”. For `C[C@]12CC[C@@H]3c4cc(O)c(O)cc4CC[C@H]3[C@@H]1CC[C@@H]2O`, the half-maximal activity concentration (AC50) is 9.63 µM. Regarding `COc1ccc(CNC(=O)COC(=O)c2ccc(S(=O)(=O)N3CCCCC3)cc2)cc1`, the “activity change, negative = inhibition” value is “inactive”.
